Results published in US20120021434A1, “METHOD FOR TREATING B CELL REGULATED AUTOIMMUNE DISORDERS” (Synta Pharmaceuticals Corp., priority 2005, published 2012).

Tests used:
Type in all cases: cell-based
[1] = test system: IL-12 promoter (p40 expression); assay: IL-12 promoter-Luc reporter with ICSBP over-expression; conditions: co-transfection of ICSBP construct with IL-12 promoter-Luc reporter
From the text: ICSBP, whose expression was reduced by Compound 50, was over-expressed using co-transfection with the IL-12 promoter-Luc report system. The over-expression construct of ICSBP was generated by PCR from cDNA of human PBMC using primers as follow: ICSBP-exp-F: 5′-[…]-3′ (SEQ ID NO:1) and ICSBP-exp-R: 5′-[…]-3′ (SEQ ID NO:2), the resulting PCR products was ligated to pCI vector (Promega).

NF-κB p50 = assay: Kinetics of p50 nuclear translocation in LPS-stimulated THP1 cells (immunoblot, densitometry); conditions: 100 nM
Description: Compound 50 impairs nuclear accumulation of c-Rel and slightly reduces nuclear accumulation of p50. We examined the nuclear translocation kinetics of NF-κB family members in LPS stimulated cells treated with Compound 50. THP1 cells were stimulated with LPS in either the presence or absence of 100 nM Compound 50, and the distribution of the NF-κB Rel family members was determined by immunoblotting nuclear (n.p.) extracts collected at 5 min, 15 min, 30 min, 1 h, 3 h and 6 h post-treatment. In response to LPS stimulation, p50 translocated into the nucleus as early as 5 minutes post-stimulation and accumulates as time goes on (FIG. 4, immunoblots and FIG. 5 densitometry). […] The experiment examining p65 nuclear translocation is shown in FIG. 6 (immunoblots) and FIG. 7 (densitometry). In LPS stimulated cells, p65 translocated into the nucleus as early as 5 minutes post-stimulation and accumulated to maximum levels at 15-30 minutes post-stimulation. Treatment of LPS-stimulated cells with Compound 50 had no effect on the kinetics of p65 nuclear entry.

c-Rel = molecular target: T1, c-Rel (Homo sapiens, UniProt Q04864); assay: Western blot of THP-1 nuclear extracts: c-Rel
T1 construct: a western blot assay of THP1 nuclear c-Rel, p50 and p65 proteins was carried out; endogenous in cells; host or cells: THP-1; Jurkat
T1 sequence (Q04864 1-619): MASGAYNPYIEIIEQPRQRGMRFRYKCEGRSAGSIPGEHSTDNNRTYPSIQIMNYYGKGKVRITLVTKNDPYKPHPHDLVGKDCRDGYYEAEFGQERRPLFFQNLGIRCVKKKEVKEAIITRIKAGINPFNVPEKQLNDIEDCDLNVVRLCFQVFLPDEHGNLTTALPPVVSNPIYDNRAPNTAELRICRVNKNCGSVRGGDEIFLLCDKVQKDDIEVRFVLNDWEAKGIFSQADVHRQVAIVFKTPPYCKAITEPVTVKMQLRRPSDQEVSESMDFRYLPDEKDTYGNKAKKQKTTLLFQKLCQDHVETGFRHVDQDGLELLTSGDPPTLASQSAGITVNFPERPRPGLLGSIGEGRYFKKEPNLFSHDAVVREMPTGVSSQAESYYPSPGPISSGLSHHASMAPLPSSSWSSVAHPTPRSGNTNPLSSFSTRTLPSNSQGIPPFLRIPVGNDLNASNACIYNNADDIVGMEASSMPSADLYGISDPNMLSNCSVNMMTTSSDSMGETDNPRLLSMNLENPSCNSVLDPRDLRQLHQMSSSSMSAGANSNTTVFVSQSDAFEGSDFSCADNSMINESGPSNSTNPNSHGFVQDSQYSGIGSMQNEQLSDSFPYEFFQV
Description: (§1) The THP-1 cell, Jurkat cell and RAW264.7 cell line were obtained from American Type Culture Collection (Manassas, Va.). The THP-1 Jurkat cells were cultured in RPMI 1640 (ATCC, Manassas, Va.), supplemented with 10% FCS (ATCC, Manassas, Va.), and 1% penicillin/Streptomycin (Gibco-BRL, New York, N.Y.). The RAW264.7 cells were cultured in DMEM (ATCC, Manassas, Va.) supplemented with 10% FCS (ATCC, Manassas, Va.), and 1% penicillin/Streptomycin (Gibco-BRL, New York, N.Y.). The cells were stimulated with human or murine recombinant IFNγ (100 ng/ml) for 10 h followed by LPS (1 μg/ml) or SAC (0.025%) CpG ([…]) in the presence or absence of Compound 50 at different concentrations for an additional incubation.
THP-1 cells were suspended in 20 volumes of buffer A containing 10 mM KCl, 10 mM HEPES (pH 7.9), 1 mM MgCl2, 1 mM dithiothreitol (DTT), 0.1% Nonidet p40 (NP-40), and 0.5 mM phenylmethylsulfonyl fluoride (PMSF) and homogenized and centrifuged at 10,000 rpm at 4C afor 5 min. Nuclear pellets were then suspended in buffer C containing 400 mM NaCl, 20 mM HEPES 9, pH 7.9), 15 mM MgCl2, 0.2 mM EDTA, 1 mM DTT, 25% glycerol, 1 mM PMSF, and 10 ug of leupeptin, 20 ug of pepstatin, and 10 ug/ml antipain, incubated for 30 min at 4C, and centrifuged at 14,000 rpm for 20 min. The supernatants were dialyzed against buffer D containing 100 mM NaCl, 20 mM HEPES (pH 7.9), 20% glycerol, 1 mM PMSF, and 1 mM DTT.
The 10% SDS Polyacrylamide gels (Inveitrogen) were transferred to Pure Nitrocellulose membrane (BioRed, Hercules, Calif.). The membranes were blocked with 5% milk in TBST buffer and incubated with anti-c-Rel, anti-p65, anti-p50, anti-ICSBP or anti-PU-1 antibody (all the antibodies were purchased from Santa Cruz) at a dilution of 1:500 for 1 h at room temperature or overnight at 4C. […]
(§2) Of the transcription factors that have been analyzed, two factors, ICSBP and c-Rel, seem to be affected by Compound 4/Compound 50 treatment. […]

p65 = assay: Western blot of THP-1 nuclear extracts: p65; conditions: IFN-γ plus LPS or IFN-γ plus SAC
Description: as §1
THP-1 cells were suspended in 20 volumes of buffer A containing 10 mM KCl, 10 mM HEPES (pH 7.9), 1 mM MgCl2, 1 mM dithiothreitol (DTT), 0.1% Nonidet p40 (NP-40), and 0.5 mM phenylmethylsulfonyl fluoride (PMSF) and homogenized and centrifuged at 10,000 rpm at 4C afor 5 min. […]
as §2

- level of nuclear c-Rel (c-Rel; THP-1 nuclear extracts, IFN-γ plus LPS or IFN-γ plus SAC, post-treatment level equal to or below non-stimulated level): significantly reduced
- transcription factor c-Rel affected by treatment (c-Rel; of the transcription factors analyzed): affected
SMILES: Cc1cccc(/C=N/Nc2cc(N3CCOCC3)nc(OCCc3ccccn3)n2)c1 [Compound 50, N-(3-Methyl-benzylidene)-N′-[6-morpholin-4-yl-2-(2-pyridin-2-yl-ethoxy)-pyrimidin-4-yl]-hydrazine]
- inhibition of p40 expression under ICSBP over-expression [1]: decreased the inhibition
- kinetics of p50 nuclear entry (NF-κB p50; 5 minutes to 1 hr post-stimulation): no effect
- nuclear p50 protein levels (NF-κB p50; 3 hours): small decrease
- nuclear p65 protein (p65): increased
